Here are results for one compound from publication PMC6695839, “Interspecies Variation in NCMN-O-Demethylation in Liver Microsomes from Various Species” (Molecules, 2019).

What all share (type): in vitro ADME
Data set [1] has as its system cynomolgus monkey liver microsomes (CyLM). The experiment in a line: Kinetic analysis of NCMN-O-demethylation in cynomolgus monkey liver microsomes. As to conditions: biphasic kinetics, substrate 1-150 µM. The procedure:
(§1) The formation rates of NCHN were within the linear range of the protein concentration and incubation time. NCMN (1, 2.5, 5, 7.5, 10, 25, 50, 75, 100 and 150 µM) was incubated with HLM, MLM, RLM, DLM, PLM, CyLM (0.25mg protein/mL) as well as rat CYP1A2 (100 nM) for 30min. The apparent Km and Vmax values were determined by fitting the substrate concentrations versus the metabolite reaction velocities to the Michaelis-Menten equation (Equation (1)) and the Biphasic Kinetics equation (Equation (2)), and the results were graphically represented by Eadie-Hofstee plots. (1) v=Vmax[S]/Km+[S] (2) v=Vmax 1[S]/Kmax 1+[S]+Vmax 2[S]/Kmax 2+[S] where v is the rate of the reaction, Vmax is the maximum velocity estimate, Km is the substrate affinity constant, [S] is the substrate concentration.
(§2) The UFLC system consisted of a SIL-20ACHT auto sampler, a DGU-20A3 in-line degasser, a CBM-20A communications bus module, a CTO-20AC column oven, two LC-20AD pumps and an SPD-M20A photodiode array detector were used for analyzing the samples. The separation of NCMN and its metabolites was achieved on a Shim-pack XR-ODS (75 mm × 2.0 mm, 2.2 µm, Shimadzu, Kyoto, Japan) analytical column with an ODS guard column (5 mm × 2.0 mm, 2.2 µm, Shimadzu, Kyoto, Japan). The O-demethylation was quantified at the detector wavelength of 243 nm. […] The column oven was kept at 40 °C.
A general note: Liver microsomes are a subcellular fraction often used to study metabolism.

The nature of data set [2]: Kinetic analysis of NCMN-O-demethylation in mouse liver microsomes. The following applies: mouse, mouse liver microsomes, pH 7.4; MLM; Michaelis-Menten; substrate 1-150 µM; read-out: Km1 (Km) of NCMN-O-demethylation. The procedure:
as §1, §2

For data set [3], the system named is mouse liver microsomes (MLM). The data set is described as above. As to conditions: Michaelis-Menten, substrate 1-150 µM. As for the experimental part:
as §1, §2

In data set [4] the test system is minipig liver microsomes (PLM). The experiment in a line: Kinetic analysis of NCMN-O-demethylation in minipig liver microsomes. As to conditions: biphasic kinetics, substrate 1-150 µM. As for the experimental part: as §1, §2
Data set [5] concerns human liver microsomes (HLM). The data set is described as follows: Kinetic analysis of NCMN-O-demethylation in human liver microsomes. The following applies: Michaelis-Menten, substrate 1-150 µM. As for the experimental part: as §1, §2
Experiment in data set [6]: as above
The following applies: human, human liver microsomes, pH 7.4; HLM; Michaelis-Menten; substrate 1-150 µM; read-out: Km1 (Km) of NCMN-O-demethylation. As for the experimental part:
as §1, §2

Data set [7] is described as follows: Kinetic analysis of NCMN-O-demethylation in beagle dog liver microsomes. The following applies: beagle, dog, beagle dog liver microsomes, pH 7.4; DLM; Michaelis-Menten; substrate 1-150 µM; read-out: Km1 (Km) of NCMN-O-demethylation. As for the experimental part: as §1, §2
Data set [8] has as its system beagle dog liver microsomes (DLM). The description is as above. As to conditions: Michaelis-Menten, substrate 1-150 µM. The procedure: as §1, §2
Data set [9] relates to rat liver microsomes (RLM). The data set is described as follows: Kinetic analysis of NCMN-O-demethylation in rat liver microsomes. As to conditions: biphasic kinetics, substrate 1-150 µM. As for the experimental part: as §1, §2

Values joined by “and” are separate entries in the source; they are usually repeats but may differ in a detail not shown here. Equal entries are not always repeated.

Take `COc1ccc2c3c(cccc13)C(=O)N(CCCC(=O)O)C2=O` [NCMN, N-(3-carboxypropyl)-4-methoxy-1,8-naphthalimide]: the “Km1 of NCMN-O-demethylation” value in data set [1] is 198.70 ± 39.66 µM; in [4], 242.80 ± 111.80 µM; in [9] it was 1134.00 µM and 1134.00 ± 482.10 µM. Moreover, the “Km2 of NCMN-O-demethylation” value was 0.18 ± 0.09 µM in data set [1], 5.70 ± 3.27 µM in data set [4] and 5.66 ± 0.80 µM in [9]. Moreover, the “Vm1 of NCMN-O-demethylation” value is recorded as 8.43 ± 0.91 nmol/min/mg in data set [1], 28.22 ± 5.82 nmol/min/mg in data set [4] and 78.42 ± 31.17 nmol/min/mg in [9]. The entries for the “Vm2 of NCMN-O-demethylation” value in data set [1], in [4] and in [9] were 0.28 ± 0.08 nmol/min/mg, 3.35 ± 1.20 nmol/min/mg and 5.71 ± 0.45 nmol/min/mg, respectively. In addition, the results for the Km at 30 min in data set [2], in data set [6] and in [7] were 22.8 ± 1.22 µM, 9.54 ± 0.24 µM and 61.8 ± 3.52 µM, respectively. Also, the “Vm1 (Vmax) of NCMN-O-demethylation” value in data set [3] is on record as 33.17 ± 0.42 nmol/min/mg; in data set [5], 25.61 ± 0.15 nmol/min/mg; in data set [8], 13.53 ± 0.34 nmol/min/mg.
